Patent US5789405A, “Oxaspiro(2,5)octane derivative” (Fujisawa Pharmaceutical Co., Ltd., priority 1988, dated 1998)
Values after ≈ are worked out from the molar mass of the structure shown.

Tested on: Endothelial cells from human umbilical vein (HUVEC)
Assay: Test effect on endothelial cell growth (HUVEC proliferation, MTT method)
Format: cell-based
Settings: 120 h, 5 days incubation at 37° C., graphically determined, read-out: IC50 (50% inhibition doses of the test compound to endothelial cell growth)
Method: Test effect of the object compound (I) on endothelial cell growth
Endothelial cells from human umbilical vein (HUVEC) were used for this experiment.
HUVEC (2×10^3 cells per well) were plated on 96 wells microtiter plates previously coated with human fibronectin and incubated with MCDB 151 [GIBCO] medium supplemented with 15% FBS (fetal bovine serum), […] ECGS (Endothelial cell growth supplement), 10 μg/ml heparin in the presence of the test compound at 37° C. under 5% CO2 in the air for 5 days. At the end of the experiments, the growth rate of HUVEC was measured according to the MTT method [Cancer treatment Reports 71, 1141~1149 (1987)].
IC50 values [50% inhibition doses of the test compound to endothelial cell growth) of the test compound were graphically determined and are shown in the following table.

Compound | IC50 [ng/mL]
CNC(=O)OC1CCC2(CO2)C(C2(C)OC2CC=C(C)C)C1OC (centres unmarked) | 0.21 (≈ 0.619 nM)
COC1C(OC(=O)N2CCOCC2)CCC2(CO2)C1C1(C)OC1CC=C(C)C (centres unmarked) | 0.62 (≈ 1.57 nM)
